Read-outs that look alike come from different tables or passages of the source.
Columns and labels:
[1] = tested on: pAKT-S473 in PC-3 cells (TORC2); assay: Cellular p-AKT (ser473) AlphaScreen assay in PC-3 cells (TORC2 activity); assay type: cell-based, human
Procedure: The target product profile for 1 and the next-generation analogs described here was for a dual inhibitor against both TORC1 and TORC2.
FRAP1 (mTOR) recombinant protein and GFP-4E-BP1 were purchased from Invitrogen (Carlsbad, CA, US).
The kinase activity assay was conducted in 50 mM Hepes buffer containing 10 mM MgCl2, 0.01% Brij, 0.2 mM EDTA, 2 mM DTT and 1% DMSO (after compound addition) at pH 7.3.
The IC50 value for each compound was determined in the presence of compound (various concentrations, from 0 to 10 μM) and a fixed amount of ATP (50 μM, final concentration), substrate GFP-4E-BP1 (400 nM, final concentration). The enzymatic reaction was initiated by adding FRAP1 (mTOR) (2 nM, final concentration). The assay was conducted at room temperature (~22 °C). After 30 min, the enzymatic reaction was stopped using Tb-anti-p4E-BP1 (2 nM final concentration, Invitrogen) and EDTA (20 mM final concentration, Sigma) in TR-FRET dilution buffer provided by Invitrogen. All the reagents were dispensed using a Multidrop Combi reagent dispenser (ThermoFisher Scientific, Waltham, […]
The release of product was detected using a BMG PHERAstar plate reader (BMG LABTECH, Ortenberg, Germany) and the Lantha Screen module (337 nm excitation wavelength) and measuring the ratio of fluorescence 520/490 nm (emission wavelengths). Experimental data was fitted using Eq. (1):
Vi and Vo are the rates of the enzyme activity in the presence and in the absence of inhibitor; n is the Hill coefficient; I is the free inhibitor concentration; IC 50 is a measure of potency that is equivalent to a […]
Cellular p-AKT (ser473) assay in PC-3 cells
PC-3 cells (PTEN deleted, human prostate cell line) were maintained in F12K media with 10% heat-inactivated fetal bovine serum (FBS) in 37 °C, 5% CO2 incubator. This method describes the procedure […]
from Perkin Elmer (catalog# TGRAS500). On day 1, 50,000 PC-3 cells were plated in 160 µL complete […]
Plates were placed in 37 °C, 5%
CO2 incubator for 24 h. On day 2, all media was removed and replaced with 160 µL starvation media which is F12K media (no FBS) and 0.1% BSA. Plates are placed in 37 °C, 5% CO2 incubator for 16 h. On day 3, compounds were both solubilized and serially diluted in DMSO and added to a secondary plate containing starvation media. 40 µL of compound/starvation media were added to the 160 µL in cell plate and plates were placed back in the incubator for 1 h. Cells were then activated by adding 22 µL FBS (for a final concentration of 10% FBS) for 10 min in the incubator. Media was removed from the well and cells were lysed in 100 µL SureFire kit lysis buffer and then shake n for 15 min at 900 rpm. AlphaScreen […]
assay was performed according to manufacturer’s instructions. 4 µL of lysate was added to PerkinElmer 96-well Proxiplate then 5 µL of Reaction Buffer plus Activation Buffer. Plates were shaken for 2 h at room temperature. 2 µL of Donor Beads in Dilution Buffer were added to the plate and the plate was shaken for 2 h at room temperature. The plate was read using BMG Labtech PHERAstar using AlphaScreen settings. Each analog was run in duplicate wells and a single IC50 value was calculated in […]

[2] = tested on: PI3Kα; assay: PI3Kα enzyme selectivity (PI3Kα IC50 over mTOR IC50); assay type: biochemical; settings: ratio of PI3Kα enzyme IC50 over mTOR enzyme IC50
[3] = Human liver microsome intrinsic clearance; assay type: in vitro ADME; settings: apparent intrinsic clearance, scaled
[4] = Rat PK (iv and po); assay type: in vivo; settings: for bioavailability: in vivo, 4 mg/kg; for bioavailability / Cl / Vd: iv 1 mpk; for bioavailability / Cmax: po 4 mpk in 0.5% methylcellulose; for frac. abs.: estimated from %F, Cl and Qh = 70 mL min^–1 kg^–1
From the text: This was an early indication that the strategy of increasing potency while lowering lipophilicity would allow us to meet our goal of improving prospects for favorable PK and dose.

[5] = tested on: CYP 2C8, 1A2, 2C9, 2C19, 2D6 and 3A4; assay: CYP inhibition, all isoforms tested; assay type: in vitro ADME; settings: human
From the text: We also desired to remove the aniline structural alert present in the aryl urea moiety, which has been associated with idiosyncratic adverse drug reactions.[16]

[6] = target: T1, CYP2C8 (Homo sapiens, UniProt P10632); assay: CYP inhibition, 2C8; assay type: in vitro ADME; settings: most potently inhibited CYP isoform
T1 sequence (P10632 1-490): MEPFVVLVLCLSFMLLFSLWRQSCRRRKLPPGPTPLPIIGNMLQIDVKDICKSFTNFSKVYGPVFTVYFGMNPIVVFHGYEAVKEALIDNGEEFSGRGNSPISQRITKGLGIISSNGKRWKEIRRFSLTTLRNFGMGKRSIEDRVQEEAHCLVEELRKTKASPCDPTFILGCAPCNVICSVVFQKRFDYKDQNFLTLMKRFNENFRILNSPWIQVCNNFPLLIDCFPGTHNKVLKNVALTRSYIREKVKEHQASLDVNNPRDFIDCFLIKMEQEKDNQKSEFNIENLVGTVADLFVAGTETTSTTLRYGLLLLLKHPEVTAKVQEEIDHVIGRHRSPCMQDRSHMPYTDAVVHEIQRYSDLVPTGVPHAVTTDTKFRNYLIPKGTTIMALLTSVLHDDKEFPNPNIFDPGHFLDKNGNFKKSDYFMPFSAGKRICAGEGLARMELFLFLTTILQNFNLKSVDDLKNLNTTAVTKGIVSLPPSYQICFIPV

[7] = target: CYP-2C9 (Homo sapiens, UniProt P11712); assay: CYP inhibition, 2C9; assay type: in vitro ADME; settings: most potently inhibited isoform was CYP-2C9
From the text: Table 3 New Combinations from Free–Wilson Analysis | column: CYP IC50/μM ^c

[8] = Homo sapiens, PC-3, PC-3 cell line, read-out: pAKT S473 Cell IC50
[9] = Homo sapiens, p-AKT S473, PC-3 cells, mean of N runs, read-out: Cell pEC50 (converted)
[10] = PC-3 cell line, read-out: pAKT S473 Cell IC50
[11] = Homo sapiens, PC-3, read-out: Cell pEC50 (converted)
[12] = Homo sapiens, PC-3, read-out: pAKT S473 Cell IC50

CYP-2C9, sequence (P11712 whole entry, canonical isoform): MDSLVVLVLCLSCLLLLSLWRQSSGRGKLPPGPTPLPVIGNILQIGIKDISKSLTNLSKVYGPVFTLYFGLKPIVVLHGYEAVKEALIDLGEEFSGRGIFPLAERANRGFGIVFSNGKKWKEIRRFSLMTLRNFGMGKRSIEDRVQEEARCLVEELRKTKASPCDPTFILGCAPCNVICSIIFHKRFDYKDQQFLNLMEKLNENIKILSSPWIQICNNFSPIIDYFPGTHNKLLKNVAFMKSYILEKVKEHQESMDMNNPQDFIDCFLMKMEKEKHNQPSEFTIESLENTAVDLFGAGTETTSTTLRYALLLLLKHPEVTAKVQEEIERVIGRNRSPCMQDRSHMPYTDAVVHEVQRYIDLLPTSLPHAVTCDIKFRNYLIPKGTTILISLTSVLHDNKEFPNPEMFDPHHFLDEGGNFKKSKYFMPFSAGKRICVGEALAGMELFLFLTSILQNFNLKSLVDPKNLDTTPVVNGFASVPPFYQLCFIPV

Row | SMILES | IC50 [1, 8] [µM] | EC50 [1, 9] [µM] | PI3Kα Sel [2] [x] | HLM Clint [3] [mL min^–1 kg^–1] | PI3Kα Sel ([2]; Table 2, unit not given) | other results
1 | C[C@@]12COCCN1c1nc(-c3ccc(NC(=O)NC4CC4)cc3)ncc1N(CC1CC1)C2=O [3a] | 0.038 | 0.038 | 100 | – | – | –
2 | C[C@@]12COCCN1c1nc(-c3cnc4[nH]ccc4c3)ncc1N(CC1CC1)C2=O [3b] | 0.051 | 0.0513 | 48 | – | – | –
3 | C[C@@]12COCCN1c1nc(-c3cnc4cc[nH]c4c3)ncc1N(CC1CC1)C2=O [3c] | 0.091 | 0.0912 | 26 | – | – | –
4 | C[C@@]12COCCN1c1nc(-c3ccc(NC(=O)NC4CC4)cc3)ncc1N(C1CCOCC1)C2=O [4a] | 0.042 | 0.0417 | 63 | – | – | –
5 | C[C@@]12COCCN1c1nc(-c3cnc4[nH]ccc4c3)ncc1N(C1CCOCC1)C2=O [4b] | 0.062 | 0.0617 | 23 | 6 | 23 | –
6 | C[C@@]12COCCN1c1nc(-c3cnc4cc[nH]c4c3)ncc1N(C1CCOCC1)C2=O [4c] | 0.1 | 0.105 | 13 | – | – | –
7 | C[C@@]12COCCN1c1nc(-c3c[nH]c4ccccc34)ncc1N(C1CCOCC1)C2=O [4d] | ≤ 0.03 | 0.0295 | 120 | – | – | IC50 [1, 10]: 0.03 µM
8 | C[C@@]12COCCN1c1nc(-c3cccc4[nH]ccc34)ncc1N(C1CCOCC1)C2=O [4e] | ≤ 0.03 | 0.0214 | 110 | 10 | 110 | IC50 [1, 10]: 0.021 µM; bioavailability [4]: 91%; Cl [4]: 15 mL min^–1 kg^–1; IC50 [5]: > 40 µM
9 | C[C@@]12COCCN1c1nc(-c3cncc4[nH]ccc34)ncc1N(C1CCOCC1)C2=O [4f] | 0.017 | 0.0166 | 84 | – | – | –
10 | Cc1ccc(-c2ncc3c(n2)N2CCOC[C@@]2(C)C(=O)N3C2CCOCC2)c2cc[nH]c12 [4g] | 0.026 | 0.0257 | 450 | – | – | –
11 | Cc1ncc(-c2ncc3c(n2)N2CCOC[C@@]2(C)C(=O)N3C2CCOCC2)c2cc[nH]c12 [4h] | 0.048 | 0.0479 | 270 | – | – | –
12 | Cc1cccc2c(-c3ncc4c(n3)N3CCOC[C@@]3(C)C(=O)N4C3CCOCC3)c[nH]c12 [4i] | 0.009 | 0.00871 | 640 | – | – | IC50 [6]: 1 µM
13 | C[C@@]12COCCN1c1nc(-c3cnc4[nH]ccc4c3)ncc1N(C1CCOC1)C2=O (some centres unmarked) [13a] | 0.074 | 0.0741 | – | 12 | 5 | –
14 | COCCCN1C(=O)[C@]2(C)COCCN2c2nc(-c3cnc4[nH]ccc4c3)ncc21 [13b] | 0.057 | 0.0575 | – | 32 | 9 | –
15 | C[C@@]12COCCN1c1nc(-c3cnc4[nH]ccc4c3)ncc1N(CCCO)C2=O [13c] | 0.17 | 0.17 | – | 9 | 9 | –
16 | C[C@@]12COCCN1c1nc(-c3cnc4[nH]ccc4c3)ncc1N(C1(CCO)CC1)C2=O [13d] | 0.061 | 0.0617 | – | 11 | 59 | –
17 | C[C@@]12COCCN1c1nc(-c3cnc4[nH]ccc4c3)ncc1N(C1CCN(S(C)(=O)=O)CC1)C2=O [13e] | – | – | – | 6 | 14 | EC50 [1, 11]: 0.12 µM; IC50 [1, 12]: 0.12 µM
18 | CC(=O)N1CCC(N2C(=O)[C@]3(C)COCCN3c3nc(-c4cccc5[nH]ccc45)ncc32)CC1 [14a] | – | – | – | 6 | 120 | EC50 [1, 11]: 0.055 µM; IC50 [1, 12]: 0.055 µM
19 | C[C@@]12COCCN1c1nc(-c3cccc4[nH]ccc34)ncc1N([C@H]1CC[C@@H](O)CC1)C2=O [14b] | 0.014 | 0.0141 | – | 6 | 110 | IC50 [6]: 4 µM; PI3Ka sel. [2]: 110 ×; frac. abs. [4]: 100%; bioavailability [4]: 100%; Cl [4]: 11 mL min^–1 kg^–1; Vd [4]: 3.9 L/kg; Cmax [4]: 1400 nM
20 | Cc1ccc(-c2ncc3c(n2)N2CCOC[C@@]2(C)C(=O)N3[C@H]2CC[C@H](O)CC2)c2cc[nH]c12 [15a] | – | – | – | 6 | – | frac. abs. [4]: 41%; bioavailability [4]: 35%; Cl [4]: 10 mL min^–1 kg^–1; Vd [4]: 1.6 L/kg; Cmax [4]: 570 nM; IC50 [7]: 5 µM
21 | Cc1cccc2c(-c3ncc4c(n3)N3CCOC[C@@]3(C)C(=O)N4[C@H]3CC[C@H](O)CC3)c[nH]c12 [15b] | – | – | – | 7 | – | IC50 [6]: 3 µM
22 | Cc1ccc(-c2ncc3c(n2)N2CCOC[C@@]2(C)C(=O)N3[C@H]2CC[C@@H](O)CC2)c2cc[nH]c12 [15c] | – | – | – | 8 | – | IC50 [6]: 3 µM
23 | Cc1cccc2c(-c3ncc4c(n3)N3CCOC[C@@]3(C)C(=O)N4[C@H]3CC[C@@H](O)CC3)c[nH]c12 [15d] | – | – | – | 7 | – | IC50 [6]: 0.8 µM
24 | Cc1cccc2c(-c3ncc4c(n3)N3CCOC[C@@]3(C)C(=O)N4C3(CCO)CC3)c[nH]c12 [15e] | – | – | – | 6 | – | IC50 [6]: 1.3 µM; EC50 [1, 11]: 0.00457 µM; IC50 ([1]; Homo sapiens, PC-3, read-out: pAKT S473 Cell IC50, PC-3 cell line): 0.005 µM

Source: publication PMC10641921, “Optimization of mTOR Inhibitors Using Property-Based Drug Design and Free–Wilson Analysis for Improved In Vivo Efficacy” (ACS Medicinal Chemistry Letters, 2023)
